Assay results as given in PubChem BioAssay (NCI).
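A five-concentration, 48-hour dose response in 96-well plates underlies each endpoint, interpolated linearly between surrounding concentrations. TGI is the concentration that stops growth completely.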

Columns and labels:
Test in all cases: NCI anticancer screen, dose series, 48 h
[1] = tested on: ACHN renal
[2] = tested on: HCT-15 colon
[3] = tested on: HL-60(TB) leukemia
[4] = tested on: MDA-MB-435
[5] = tested on: NCI-H23 lung
[6] = tested on: SR leukemia
[7] = tested on: TK-10 renal
[8] = tested on: U251 CNS
[9] = tested on: UO-31 renal
[10] = tested on: HCT-116 colon

Row | Compound | TGI [1] [µM] | TGI [2] [µM] | TGI [3] [µM] | TGI [4] [µM] | TGI [5] [µM] | TGI [6] [µM] | TGI [7] [µM] | TGI [8] [µM] | TGI [9] [µM] | TGI [10] [µM]
1 | CCOC(=O)c1csc(NC(=O)CCN2CCN(C)CC2)n1 | > 100 | > 100 | > 100 | > 100 | > 100 | > 100 | > 100 | > 100 | > 100 | 
2 | CC/C=N\N1C(N)=C(C#N)C(C#N)(C#N)C1CC (stereo not drawn) | > 100 | > 100 | 85.6 | > 100 | > 100 |  | > 100 | > 100 | > 100 | > 100
3 | O=C(C(=C(I)I)c1ccccc1)c1ccccc1 | > 100 | > 100 | 52.3 | > 100 | 88.8 | 93.6 | 83.7 |  | 58.8 | 36.9
4 | CCOC(=O)c1csc(NC(=O)CCN2CCCC2)n1 | > 100 | > 100 | > 100 | > 100 | > 100 | > 100 | > 100 | > 100 | > 100 | 
5 | C=C(C)[C@H]1CC23C(=O)[C@@](C)(C[C@H]2C1(C)C)C(=O)C(C(=O)C(C)C)=C3O | 30.4 | 33.1 | 41.6 | 31.3 | 43 | 38.7 | 53.3 | 39.7 | 39.2 | 
6 | Cc1cc(S(=O)(=O)N=C2Nc3cccc4cccc(c34)N2)c(S)cc1Cl | > 100 | > 100 | > 100 | > 100 |  | > 100 |  | > 100 | > 100 | 83.8
7 | N#CCCN(CCC#N)c1ccc(C(N=Nc2ccccc2)=Nc2ccc(F)cc2)cc1 | > 100 | > 100 |  | > 100 | > 100 | > 100 | > 100 | > 100 | > 100 | > 100
8 | O=C(c1ccco1)N(C(=O)N1CCC(c2ccccc2)CC1)c1ccccc1 | > 100 | > 100 | 65.9 | > 100 | > 100 |  | > 100 | > 100 | 83.8 | > 100
9 | COc1cc2c(cc1OCc1ccccc1)NC(=O)[C@@H]1CCCN1C2=O | > 100 | > 100 |  | > 100 | > 100 | > 100 | > 100 | > 100 | > 100 | > 100
10 | CC1=C(C)SC(=C2Sc3c(n(C)c(=O)n(C)c3=O)S2)S1 | > 100 | > 100 | > 100 | > 100 | > 100 |  | 74.7 | 18.9 | > 100 | 27.5
11 | CC(=N/NC(=S)N(C)C)/C(=N\NC(=S)N(C)C)c1ccccc1 | 3.26 | 4.36 |  | 3.56 |  |  | 3 | 7.96 | 6.21 | 9.77
12 | CSc1nc(Cl)c2c(n1)Sc1nc3ccccc3n1C2O (stereo not drawn) | > 100 | > 40.2 |  | > 44.2 | > 100 |  | > 100 | 15.2 | 24.3 | > 33.1
13 | OC(CC(O)(C(F)(F)Cl)C(F)(F)Cl)c1ccccc1 (stereo not drawn) | > 10 | > 10 | > 10 |  | > 10 | > 10 | > 10 | > 10 |  | > 10
14 | CN(C)/N=N/c1nc2c(c(=O)n(C)c(=O)n2C)n1CC1CO1 (stereo not drawn) | 41.9 | 29.1 | > 100 | 35.6 | 25.1 |  | 37.7 | 35.2 | 31.3 | 24
15 | CCOC(=O)C(NC(=O)c1cccc(Cl)c1)(Nc1cccc(C)c1)C(F)(F)F (stereo not drawn) | 29.8 | 31.2 | > 100 | 43.8 |  | > 100 | > 100 | 79.3 | 32.7 | 33.4
16 | CCCn1cc2c3c(cccc31)C1C=C(C)CN(C)C1C2 (stereo not drawn) |  | 49 | 5.56 |  | 61.8 |  |  | 52 | 38.8 | 38.5
17 | O=C1CSC(c2c[nH]c3ccccc23)N1c1ccc(Cl)cc1Cl (stereo not drawn) |  | > 100 | > 100 |  | > 100 | > 100 | > 100 | > 100 | > 100 | > 100
18 | CN(C)CCNCCCNc1c2ccccc2nc2cccc([N+](=O)[O-])c12 | 0.0312 | 0.569 | 0.0247 | 0.0313 | < 0.0186 |  | 0.176 | 0.0801 | 0.26 | 0.0594
